# According to US20180235909A1, “Use of 1-phenyl-3-dimethylaminopropane Compounds for Treating Rheumatoid Pain” (Gruenenthal GmbH, priority 2009, published 2018):
# Test system: CFA-induced chronic arthritic pain
# Assay: CFA-induced chronic knee joint arthritic pain in rats, weight bearing (incapacitance tester)
# Conditions: for Analgesic efficacy (mean percentage of maximal possible effect, weight bearing): highest possible dose without readout confounding side effects, five days post intraarticular CFA, n=10; for Side effects at higher doses: doses higher than the highest analyzed dose
smiles,measurement,setting,value
COc1ccc2c3c1O[C@H]1C(=O)CC[C@@]4(O)[C@@H](C2)N(C)CC[C@]314 [Oxycodone],"Analgesic efficacy (mean percentage of maximal possible effect, weight bearing)",0.464 mg/kg i.v.,46.1% @ 0.464 mg/kg
same,"Analgesic efficacy (mean percentage of maximal possible effect, weight bearing)","0.464 mg/kg i.v., listed as oxycodone",46.1%
same,Side effects at higher doses,rats,readout (weight bearing) confounding side effects
CN1CC[C@]23c4c5ccc(O)c4O[C@H]2[C@@H](O)C=C[C@H]3[C@H]1C5 [Morphine],"Analgesic efficacy (mean percentage of maximal possible effect, weight bearing)",2.15 mg/kg iv,59.6% @ 2.15 mg/kg
same,"Analgesic efficacy (mean percentage of maximal possible effect, weight bearing)","2.15 mg/kg iv, listed as morphine",59.6%
same,Side effects at higher doses,rats,readout (weight bearing) confounding side effects
CC(C)Cc1ccc(C(C)C(=O)O)cc1 (centres unmarked) [Ibuprofen],"Analgesic efficacy (mean percentage of maximal possible effect, weight bearing)",147 mg/kg ip,54.7% @ 147 mg/kg
same,"Analgesic efficacy (mean percentage of maximal possible effect, weight bearing)","147 mg/kg ip, listed as ibuprofen",54.7%
same,Side effects at higher doses,rats,readout (weight bearing) confounding side effects
"CC[C@@H](c1cccc(O)c1)[C@@H](C)CN(C)C [Tapentadol, (−)-(1R,2R)-3-(3-dimethylamino-1-ethyl-2-methyl-propyl)¬phenol]",Side effects at higher doses,rats,readout (weight bearing) confounding side effects
same,Effect on CFA-induced decrease in weight bearing,"i.v. administration, rats, dose dependence",significantly reduced the CFA-induced decrease in weight bearing in a dose dependent manner
